# Results taken from patent US8329865B2, “Antimicrobially active peptides” (priority 2001, dated 2012).
# No end group written: not given here.
# Experiments:
# [1] = tested on: E. coli ATCC 25922; assay type: cell-based, Escherichia coli
# Experimental: (§1) Antimicrobial assays. Antimicrobial assays were performed using the CFU assay as previously described (Rieg, S. et al. 2005 J. Immunol. 174:8003-8010, Schittek, B. et al. 2001 Nat. Immunol. 2:1133-1137). The antibacterial activity of DCD-derived peptides and LL-37 was tested against the following bacterial strains: Escherichia coli ATCC 25922, methicillin-susceptible Staphylococcus aureus ATCC 25923 (MSSA), methicillin-resistant Staphylococcus aureus (MRSA; clinical isolate), Staphylococcus epidermidis ATCC 12228, and Pseudomonas aeruginosa ATCC 27853. E. coli ML-35p was generously provided by Robert Lehrer (Department of Medicine, Center for Health Sciences, Los Angeles, Calif.) and cultivated on Luria-Bertani (LB) plates containing 50 μg of ampicillin/ml. This strain constitutively expresses cytoplasmic […] but lacks lactose permease (Lehrer, R. I. et al. 1988 J. Immunol. Methods 108:153-158). The bacterial membrane mutants Staphylococcus aureus mprF and dltA and Staphylococcus epidermidis Δica and the corresponding wild-type strains S. aureus 113 and S. epidermidis 1457 were previously described (Gotz, F. 2002 Mol. Microbiol. 43:1367-1378, Peschel, A. et al. 2001 J. Exp. Med. 193:1067-1076). Bacterial cultures were grown to mid-exponential growth phase and washed three times with 10 mM sodium phosphate buffer-10 mM NaCl (pH 7.0). The bacterial concentration was estimated photometrically at 600 nm. Absorbance of 1.0 corresponded to 8.56×10^8/ml for E. coli; 1×10^8/ml for E. coli ML-35p; 1.97×10^8/ml for S. aureus, MRSA, and the wild-type and membrane mutants of S. aureus and S. epidermidis; and 5.07×10^8/ml for P. aeruginosa.
# (§2) After dilution to a concentration of 10^6 CFU/ml, 10-μl portions of the dilutions were incubated at 37° C. for 2 to 4 h with the respective peptide diluted in water in a total volume of 30 μl in 10 mM sodium phosphate buffer-10 mM NaCl (pH 7.0). After incubation, the cells were diluted 1:100 in 10 mM sodium phosphate buffer-10 mM NaCl (pH 7.0), and 90 μl of the diluted bacterial suspension was plated in triplicates on blood agar. Bacterial colonies were counted after incubation for 18 to 24 h at 37° C. The antimicrobial activity was calculated by using [(cell survival after peptide incubation)/(cell survival in buffer without peptide)×100]. The LC90 describes the lethal concentration of the current synthetic peptide in μg/ml or μM that leads to a 90% reduction of CFU compared to the buffer control.
# (§3) ^aThe 90% inhibitory concentration (IC90) is the concentration of peptide in μg/ml (or in μM [in parentheses]) able to kill 90% of the microorganisms in 10 mM NaP-10 mM NaCl in a CFU assay compared to the control incubated only in buffer without peptide. ND, not determined.
# [2] = tested on: E. coli ML-35p; assay type: cell-based, Escherichia coli; settings: 10 mM NaP-10 mM NaCl, CFU assay
# Experimental: as §1, §2, §3
# [3] = tested on: P. aeruginosa ATCC 27853; assay type: cell-based, Pseudomonas aeruginosa
# Experimental: as §1, §2, §3
# [4] = tested on: S. epidermidis ATCC 12228; assay type: cell-based, Staphylococcus epidermidis
# Experimental: as §1, §2, §3
# [5] = tested on: S. epidermidis Δica; assay type: cell-based, Staphylococcus epidermidis; settings: 10 mM NaP-10 mM NaCl, CFU assay
# Experimental: as §1, §2, §3
# [6] = tested on: S. aureus mprF; assay type: cell-based, Staphylococcus aureus; settings: 10 mM NaP-10 mM NaCl, CFU assay
# Experimental: as §1, §2, §3
# [7] = tested on: S. aureus (MSSA) ATCC 25923; assay type: cell-based, Staphylococcus aureus
# Experimental: as §1, §2, §3
# [8] = tested on: S. aureus dltA; assay type: cell-based, Staphylococcus aureus; settings: 10 mM NaP-10 mM NaCl, CFU assay
# Experimental: as §1, §2, §3
# [9] = tested on: S. aureus (ATCC 25923); test: TEM and IEM of peptide-treated bacteria; assay type: cell-based, Staphylococcus aureus
# Experimental: FIG. 10. Morphology of peptide-treated S. aureus. […] As a negative control cells were incubated in buffer without peptide. For the immune-EM, bacteria were incubated with a polyclonal antiserum to DCD-1, and the reactivity was detected by immunogold labeling. Seen is the binding of DCD to the bacterial surface.
# TEM and IEM. Liquid cultures of S. aureus (ATCC 25923) cells grown up to mid-logarithmic phase were washed twice in 10 mM sodium phosphate buffer (pH 7.4). […] In parallel, antimicrobial assays with both peptides were performed which confirmed the antibacterial activity of both peptides. For immune electron microscopy (IEM), cells were fixed in PLP and centrifuged, and the resulting bacterial pellet was embedded in 3.5% agarose at 37° C. and cooled on ice. Small parts of agarose blocks were embedded in Lowicryl (Polysciences, Eppelheim, Germany). Ultrathin sections (50 nm) were mounted on Formvar-coated nickel grids and incubated with rabbit anti-DCD, followed by 10-nm gold-conjugated goat anti-rabbit immunoglobulin G (Auroprobe EM; Amersham, Freiburg, Germany). In control samples the primary antibody was omitted. Samples were examined by using a Zeiss 109 transmission electron microscope (Zeiss, Oberkochen, Germany). For transmission EM (TEM) bacterial pellets were fixed in Karnovsky's fixative, postfixed in 1% osmium tetroxide, and embedded in Epon.
# [10] = tested on: Escherichia coli, Staphylococcus aureus, Enterococcus faecalis and Candida albicans; test: CFU test (colony-forming units), Example 4; assay type: cell-based; settings: sodium phosphate buffer, 37° C., 3 h, 4 h or overnight
# Experimental: The antimicrobial effect of said peptides was carried out by a CFU test (test for colony-forming units) as described for the defensins by Valore et al., “Human Beta-Defensin-1: An Antimicrobial Peptide of Urogenital Tissues”, J Clin Invest 101, 1633-1642 (1998).
# The test of the novel peptides was carried out with Escherichia coli, Staphylococcus aureus, Enterococcus faecalis and Candida albicans. E. coli was incubated in LB medium, E. faecalis and S. aureus in Columbia medium (Difko, BD Heidelberg) and C. albicans in casein hydrolysate medium (Merck, Darmstadt). The amounts of bacteria and yeasts were determined by photometry. The bacterial strains were incubated to an optical density of […] at 600 nm and the yeast was incubated to an optical density of 0.4-0.6 at 450 nm. The amount of the organisms was determined by plating various dilutions as follows: an OD of 1 at 600 nm is equivalent to 8.2×10^9/ml for E. coli, 1.9×10^10/ml for S. aureus and 9.0×10^9/ml for E. faecalis, and an OD of 1 at […] is equivalent to 1.4×10^8/ml for C. albicans.
# The cells were washed twice with 10 mM sodium phosphate buffer (pH 7.4) and diluted to 2-3×10^7 cells/ml (E. coli, E. faecalis), 5.7×10^7 cells/ml (S. aureus) or 5×10^5 cells/ml (C. albicans) in phosphate buffer.
# The cells were incubated with various amounts of the peptides in 200 μl of sodium phosphate buffer at 37° C. for 3 h, 4 h or overnight (21-24 h). The cells were diluted 1:10 to 1:100 for the bacteria and 1:500 to 1:5000 for the yeast, and 50 μl, 100 μl and 200 μl were plated on appropriate agar plates. The plates were incubated at 37° C. overnight, and the number of colonies was counted. The antimicrobial effect of the peptides has been stated as percentage of killed cells: [1−(cell survival after incubation with the peptide)/(cell survival after control incubation)]×100.
Molecule,IC90 [1],IC90 [2] [µg/mL],IC90 [3],IC90 [4],IC90 [5] [µg/mL],IC90 [6] [µg/mL],IC90 [7],IC90 [8] [µg/mL],morphological changes of S. aureus (transmission EM) ([9]; 100 μg/ml for 4 h),"localisation of peptide on bacteria (immune-EM) ([9]; antiserum to DCD-1, immunogold labeling)",antimicrobial effect (percentage of killed cells) [10]
LEKGLDGAKKAVGGLGKLGKDAVEDLESVGKGAVHDVKDVLDSVL [LEK-45],>200 (>44) μg/ml,> 200,>200 (>44) μg/ml,200 (44) μg/ml,> 200,> 200,>200 (>44) μg/ml,> 200,,,
SSLLEKGLDGAKKAVGGLGKLGK [SSL-23],10 µg/mL,,>200 µg/mL,8 µg/mL,>200,50,10 µg/mL,10,,,
SSLLEKGLDGAKKAVGGLGKLGKDA [SSL-25],10 µg/mL,9,200 µg/mL,>200 µg/mL,,>200,48 µg/mL,>200,,,
SSLLEKGLDGAKKAVGGLGKLGKDAVEDL [SSL-29],>200 (>69) μg/ml,> 200,>200 (>69) μg/ml,200 (69) μg/ml,,180,>200 (>69) μg/ml,,,,
SSLLEKGLDGAKKAVGGLGKLGKDAVEDLESVGKGAVHDVKDVLDSV (synthetic fragment of DCD protein) [DCD-1],,,,,,,,,"no signs of cell wall damage. Instead, we observed cellular disintegration",able to bind to the cell surface but is not found in the bacterial cytoplasm,quantity-dependent antimicrobial effect
SSLLEKGLDGAKKAVGGLGKLGKDAVEDLESVGKGAVHDVKDVLDSVL [DCD-1L],45 µg/mL,30,>200 µg/mL,10 µg/mL,>200,50,45 µg/mL,6,,,
"YDPEAASAPGSGNPCHEASAAQKENAGEDP [Y-P30, survival promoting peptide Y-P30 with one amino acid replaced, reference compound]",,,,,,,,,,,no appreciable antimicrobial effect
"DCD protein: DCD protein comprising the sequence SEQ ID No: 1, 110 amino acid residues (protein, listed as Homo sapiens) MRFMTLLFLTALAGALVCAYDPEAASAPGSGNPCHEASAAQKENAGEDPGLARQAPKPRKQRSSLLEKGLDGAKKAVGGLGKLGKDAVEDLESVGKGAVHDVKDVLDSVL",,,,,,,,,,,toxic
